Assay results: publication PMC11447812, “How ATP and dATP Act as Molecular Switches to Regulate Enzymatic Activity in the Prototypical Bacterial Class Ia Ribonucleotide Reductase” (Biochemistry, 2024)

Columns and labels:
[1] = target: T1, E. coli class Ia RNR α subunit (W28A-α2) (Escherichia coli, UniProt P00452, W28A); assay: […] Å crystal structure with ATP; type: binding
T1 construct: gene nrdA; His6-W28A-α2
T1 sequence (P00452 1-761 W28A): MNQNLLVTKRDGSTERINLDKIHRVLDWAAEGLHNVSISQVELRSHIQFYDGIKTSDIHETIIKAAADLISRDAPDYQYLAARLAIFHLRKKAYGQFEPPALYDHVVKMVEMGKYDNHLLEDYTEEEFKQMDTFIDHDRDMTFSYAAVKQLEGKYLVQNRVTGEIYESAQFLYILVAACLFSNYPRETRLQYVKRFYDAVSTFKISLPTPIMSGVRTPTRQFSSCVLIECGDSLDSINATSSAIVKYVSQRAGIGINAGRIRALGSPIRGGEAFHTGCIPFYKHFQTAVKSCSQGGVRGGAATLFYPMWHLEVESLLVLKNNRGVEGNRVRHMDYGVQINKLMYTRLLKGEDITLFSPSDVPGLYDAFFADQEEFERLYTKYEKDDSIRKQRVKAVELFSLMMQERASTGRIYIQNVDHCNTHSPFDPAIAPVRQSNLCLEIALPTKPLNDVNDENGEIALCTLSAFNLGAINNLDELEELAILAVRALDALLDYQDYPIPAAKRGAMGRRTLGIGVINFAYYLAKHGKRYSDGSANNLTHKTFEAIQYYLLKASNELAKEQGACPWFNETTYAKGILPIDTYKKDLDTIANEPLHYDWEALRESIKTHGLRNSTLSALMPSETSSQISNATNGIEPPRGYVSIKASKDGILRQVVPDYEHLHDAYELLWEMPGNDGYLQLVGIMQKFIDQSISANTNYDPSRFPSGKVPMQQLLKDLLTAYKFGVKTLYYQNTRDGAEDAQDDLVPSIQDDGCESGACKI
T1 sequence (P69924 2-376 partner): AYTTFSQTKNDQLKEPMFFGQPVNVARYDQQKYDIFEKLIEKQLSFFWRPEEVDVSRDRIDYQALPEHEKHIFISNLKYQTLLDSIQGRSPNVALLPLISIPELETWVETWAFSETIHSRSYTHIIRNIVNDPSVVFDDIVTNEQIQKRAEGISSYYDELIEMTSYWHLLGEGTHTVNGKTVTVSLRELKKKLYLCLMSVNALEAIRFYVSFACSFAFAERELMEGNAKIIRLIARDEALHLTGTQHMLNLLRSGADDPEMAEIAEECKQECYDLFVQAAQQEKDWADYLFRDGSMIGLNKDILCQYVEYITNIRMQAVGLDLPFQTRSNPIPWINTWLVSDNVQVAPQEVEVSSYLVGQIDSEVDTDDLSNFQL

[2] = target: T1, E. coli class Ia RNR α subunit (W28A-α2); assay: […] Å crystal structure W28A-α2-dATP/GTP; inhibition in activity assay; type: binding

Nc1ccn([C@@H]2O[C@H](COP(=O)(O)OP(=O)(O)O)[C@@H](O)[C@H]2O)c(=O)n1 [CDP]
2.6 Å crystal structure with ATP [1]: provides a higher-resolution picture of the active site bound to the CDP/ATP substrate/effector pair

Nc1ncnc2c1ncn2[C@H]1C[C@H](O)[C@@H](COP(=O)(O)OP(=O)(O)OP(=O)(O)O)O1 [dATP]
3.55 Å crystal structure W28A-α2-dATP/GTP; inhibition in activity assay [2]: dATP was placed in the specificity site based on omit maps.
